# Measured values published in paper PMC6394474, “Evaluation of the effects of formulation, food, or a proton-pump inhibitor on the pharmacokinetics of glasdegib (PF-04449913) in healthy volunteers: a randomized phase I study” (Cancer Chemotherapy and Pharmacology, 2018).
# “Also recorded” adds a separate entry of the source.
# Experiments:
# [1] = Phase I single-dose plasma pharmacokinetics of glasdegib tablet formulations in healthy volunteers (HPLC-MS/MS, noncompartmental analysis); assay type: in vivo, human
# Description: This was a Phase I, randomized, open-label, three-period, four-sequence, four-treatment study in healthy volunteers. Subjects were randomized to one of four treatment sequences (Fig. 1). All subjects received three treatments with a washout period of at least 7 days between each administration period. The duration of each administration period was 6 days with the exception of PPI treatment, which was 12 days (including 6-day follow-up after glasdegib administration).
# No food was allowed for at least 4 h after glasdegib dosing.
# Following a 10-h fast, subjects consumed a recommended high-fat (~ 50% of total caloric content of the meal), high-calorie meal (~ 800 to 1000 calories with 150, 250, and 500–600 calories from protein, carbohydrate, and fat, respectively).
# Following a 7-day washout period, rabeprazole 40 mg was administered daily for 7 days. On the day of PK sample collection (day 7 of rabeprazole administration), both rabeprazole and glasdegib were administered in the fasted state. Rabeprazole was administered 4 h before glasdegib. […]
# The primary PK endpoints were AUCinf and Cmax of glasdegib. Additional PK endpoints were AUC from time 0 to the last quantifiable concentration (AUClast), time for Cmax (Tmax), plasma elimination half-life (t½), apparent oral clearance (CL/F), and apparent volume of distribution following oral dose (Vz/F).
# Glasdegib plasma concentrations were determined at Covance Bioanalytical Services (Shanghai, China) using a validated, sensitive, and specific high-performance liquid chromatography–tandem mass spectrometric (HPLC–MS/MS) method. […]
# Calibration curves were linear over the range of 3–3000 ng/mL for glasdegib in plasma, using a weighted (1/concentration^2) linear regression. The lower limit of quantification (LLOQ) of glasdegib was 3 ng/mL.
# Glasdegib PK parameters were calculated using noncompartmental analysis of plasma concentration–time data. […] AUClast was determined using the linear/log trapezoidal method. […] The t½ was calculated as loge(2)/Kel, CL/F was calculated as dose/AUCinf, and Vz/F was calculated as dose/(AUCinf × Kel). […]
# [2] = Safety and tolerability: treatment-emergent adverse event monitoring in healthy subjects; assay type: in vivo, human
# Description: Safety and tolerability of glasdegib were assessed by adverse event (AE) monitoring and changes in clinical laboratory results, ECGs, and physical examination findings. AEs were graded according to the Medical Dictionary for Regulatory Activities version 20.0.
# [3] = set-up: method as in PMID 24900436; conditions: unpublished; cited from earlier work
# [4] = weakly basic drug; higher solubility at acidic pH; cited from earlier work
# [5] = set-up: method as in PMID 29086063; conditions: early maleate-salt tablet formulations, in the presence of PPIs, single 100-mg oral dose; cited from earlier work
# Hedgehog pathway = tested on: Hedgehog pathway; set-up: method as in PMID 28556364; conditions: 50 mg QD dose; skin; cited from earlier work
# [6] = in the presence of a PPI (rabeprazole) vs fasted alone
smiles,measurement,setting,value
CN1CC[C@@H](NC(=O)Nc2ccc(C#N)cc2)C[C@@H]1c1nc2ccccc2[nH]1 [glasdegib],decrease in geometric mean AUCinf,"[1]; high-fat, high-calorie meal vs fasted, single 100 mg oral dose",16%
same,change in geometric mean AUCinf,[1]; [6],did not result in a change
same,decrease in geometric mean Cmax,[1]; [6],~ 20%
same,"deaths, serious AEs, severe AEs, dose reductions, discontinuations due to AEs",[2]; all treatment arms,"no deaths, serious AEs, severe AEs, dose reductions, or permanent/temporary discontinuations due to AEs"
same,TEAEs reported across all treatment arms,"[2]; human, in vivo",17
same,"gastrointestinal disorders, share of all TEAEs","[2]; human, in vivo",35%
same,severity of observed TEAEs,"[2]; human, in vivo",mild
same,subjects with TEAEs across all treatment arms,"[2]; human, in vivo",12
same,Biopharmaceutical Classification System class,[3],II or IV
same,solubility (pH-dependent),[4],drops substantially at pH ≥ 6.3; also recorded: decreasing solubility as pH increases
same,decrease in Cmax,[5],13%
same,increase in AUCinf,[5],12%
same,downregulation of the Hedgehog pathway,Hedgehog pathway,consistent downregulation
